For 43 compounds, EC50 results are on record in BindingDB's records for doi:10.1021/acsmedchemlett.6b00489 (Peking University, 2017).

The first experiment can be described thus: Inhibition of SDHB in human U2OS cells over-expressing Bim assessed as inhibition of apoptosis preincubated for 1 hr followed by doxycyclin addition to induce Bim protein expression measured after 24 hrs by Cell Titer-Glo assay.
The term EC50 denotes the concentration needed to bring the measured effect to its halfway point. As to `COc1ccc(Cn2cc(-c3cc(C(F)(F)F)nc(S(=O)(=O)CCCC(=O)N4CCCC4)n3)ccc2=O)cc1OC`, the EC50 was found to be 0.027 µM.
Take `CN(C)C(=O)c1cccc(-c2cc(C(F)(F)F)nc(S(C)(=O)=O)n2)c1`: the EC50 is greater than 20 µM.
On to `Cc1cccc(-c2cc(C(F)(F)F)nc(S(C)(=O)=O)n2)c1`, for which the EC50 amounted to 3.49 µM.
`COC(=O)c1cccc(-c2cc(C(F)(F)F)nc(S(C)(=O)=O)n2)c1`: the concentration for a half-maximal effect (EC50) amounted to 3.52 µM.
On the same count and under the same terms, as for `COc1ccc(Cn2cc(-c3cc(C(F)(F)F)nc(S(C)(=O)=O)n3)ccc2=O)cc1`, the figure is 0.094 µM; as for `CS(=O)(=O)c1nc(-c2cccc(Oc3ccccc3)c2)cc(C(F)(F)F)n1`, 8.76 µM; as for `O=S(=O)(CCc1ccccc1)c1nc(-c2cccs2)cc(C(F)(F)F)n1`, 1.59 µM.
For `C#Cc1cccc(Cn2cc(-c3cc(C(F)(F)F)nc(S(C)(=O)=O)n3)ccc2=O)c1`, the EC50 came to 4.48 µM.
With `CCCCCCCS(=O)(=O)c1nc(-c2ccc(=O)n(Cc3ccc(OC)c(OC)c3)c2)cc(C(F)(F)F)n1`, the EC50 was 0.253 µM.
As to `CCOc1cccc(Cn2cc(-c3cc(C(F)(F)F)nc(S(C)(=O)=O)n3)ccc2=O)c1`, the EC50 came out at 0.11 µM.
The same measure, in the same setting: under `CS(=O)(=O)c1nc(-c2cccs2)cc(C(F)(F)F)n1` [MLS000044645] stands 0.749 µM.
Turning to `CS(=O)(=O)c1nc(-c2cccs2)cc(-c2cccs2)n1`, the EC50 is greater than 20 µM.
Take `Cc1cc(-c2cccs2)nc(S(C)(=O)=O)n1`: the EC50 was greater than 20 µM.
`CCCCCS(=O)(=O)c1nc(-c2ccc(=O)n(Cc3ccc(OC)c(OC)c3)c2)cc(C(F)(F)F)n1`: the half-maximal effective concentration (EC50) came out at 0.364 µM.
The same measure, in the same setting: as for `C#Cc1ccc(Cn2cc(-c3cc(C(F)(F)F)nc(S(C)(=O)=O)n3)ccc2=O)cc1`, the figure is 0.817 µM; as for `COc1ccc(Cn2cc(-c3cc(C(F)(F)F)nc(S(=O)(=O)CCCC(=O)NC45CC6CC(CC(C6)C4)C5)n3)ccc2=O)cc1OC`, 0.00042 µM.
On the same count and under the same terms, under `CS(=O)(=O)c1nc(-c2ccc(=O)n(Cc3cccc(Cl)c3)c2)cc(C(F)(F)F)n1` stands 0.257 µM.
The same measure, in the same setting: as for `Cc1ccccc1-c1cc(C(F)(F)F)nc(S(C)(=O)=O)n1`, the figure is 6.64 µM; as for `CS(=O)(=O)c1nc(-c2ccc(=O)[nH]c2)cc(C(F)(F)F)n1`, greater than 20 µM.
As to `CCS(=O)(=O)c1nc(-c2cccs2)cc(C(F)(F)F)n1`, the EC50 is 1.43 µM.
Same read-out and setting: under `COc1cccc(Cn2cc(-c3cc(C(F)(F)F)nc(S(C)(=O)=O)n3)ccc2=O)c1` stands 0.057 µM; under `CS(=O)(=O)c1nc(-c2ccc(=O)n(Cc3cccc(O)c3)c2)cc(C(F)(F)F)n1`, 1.82 µM; under `Cc1ccc(-c2cc(C(F)(F)F)nc(S(C)(=O)=O)n2)cc1`, 6.36 µM.
On to `COC(=O)c1ccc(-c2cc(C(F)(F)F)nc(S(C)(=O)=O)n2)cc1`, for which the EC50 is greater than 20 µM.
On the same count and under the same terms, under `CS(=O)(=O)c1nc(-c2ccc(=O)n(Cc3ccccc3Cl)c2)cc(C(F)(F)F)n1` stands 1.14 µM; under `COc1ccc(Cn2cc(-c3cc(C(F)(F)F)nc(S(=O)(=O)CCCC(=O)N4CCCCC4)n3)ccc2=O)cc1OC`, 0.0014 µM.
On the same count and under the same terms, as for `O=S(=O)(Cc1ccc(-c2ccccc2)cc1)c1nc(-c2cccs2)cc(C(F)(F)F)n1`, the figure is 4.21 µM; as for `CCCOc1cccc(Cn2cc(-c3cc(C(F)(F)F)nc(S(C)(=O)=O)n3)ccc2=O)c1`, 0.069 µM.
As for `CS(=O)(=O)c1nc(-c2ccc(=O)n(Cc3ccc(Cl)cc3)c2)cc(C(F)(F)F)n1`, the EC50 amounted to 0.066 µM.
Still for that read-out and setting: under `COc1ccc(Cn2cc(-c3cc(C(F)(F)F)nc(S(=O)(=O)CCCC(=O)N(C)C)n3)ccc2=O)cc1OC` stands 0.164 µM; under `CS(=O)(=O)c1nc(-c2cccs2)cc(C2CCC(=O)N2)n1` (centres undefined), greater than 20 µM.
The same measure, in the same setting: under `COc1ccc(Cn2cc(-c3cc(C(F)(F)F)nc(S(=O)(=O)CCCC(N)=O)n3)ccc2=O)cc1OC` stands greater than 20 µM; under `CS(=O)(=O)c1nc(-c2ccc(=O)n(Cc3ccc(C#N)cc3)c2)cc(C(F)(F)F)n1`, 3.49 µM; under `COc1ccc(Cn2cc(-c3cc(C(F)(F)F)nc(S(C)(=O)=O)n3)ccc2=O)cc1OC`, 0.025 µM.
Same read-out and setting: as for `CS(=O)(=O)c1nc(-c2ccc(=O)n(Cc3ccccc3)c2)cc(C(F)(F)F)n1`, the figure is 1.16 µM; as for `CS(=O)(=O)c1nc(-c2ccc(=O)n(Cc3cccc(C#N)c3)c2)cc(C(F)(F)F)n1`, 4.06 µM.
For the compound `CS(=O)(=O)c1nc(-c2ccccc2)cc(C(F)(F)F)n1` [MLS000044644], the EC50 was determined as 2.2 µM.
Consider `CS(=O)(=O)c1nc(N=[N+]=[N-])cc(-c2cccs2)n1`, for which the EC50 is greater than 20 µM.
On to `Cc1ccc(O)c(NC(=O)CCCS(=O)(=O)c2nc(-c3cccs3)cc(C(F)(F)F)n2)c1`, for which the EC50 amounted to 4 µM.
Still for that read-out and setting: as for `COCCS(=O)(=O)c1nc(-c2ccc(=O)n(Cc3ccc(OC)c(OC)c3)c2)cc(C(F)(F)F)n1`, the figure is 0.216 µM; as for `COCCCS(=O)(=O)c1nc(-c2ccc(=O)n(Cc3ccc(OC)c(OC)c3)c2)cc(C(F)(F)F)n1`, 0.282 µM; as for `COC(=O)c1ccccc1-c1cc(C(F)(F)F)nc(S(C)(=O)=O)n1`, 7.03 µM.
Regarding `CCOC(=O)CCS(=O)(=O)c1nc(-c2cccs2)cc(C(F)(F)F)n1`, the EC50 came out at 1.14 µM.

The nature of a further experiment: Inhibition of SDHB in human U2OS cells over-expressing tBid assessed as reduction in apoptosis preincubated for 1 hr followed by doxycyclin addition to induce tBid protein expression measured after 24 hrs by Cell Titer-Glo assay. Background: In ATP-based viability assays light output follows the ATP content of the culture.
In the case of `COc1ccc(Cn2cc(-c3cc(C(F)(F)F)nc(S(=O)(=O)CCCC(=O)NC45CC6CC(CC(C6)C4)C5)n3)ccc2=O)cc1OC`, the EC50 was determined as 0.00023 µM.
